From US20240287074A1, “SALTS AND CRYSTALS” (Kinoxis Therapeutics Pty Ltd, priority 2020, published 2024)
Counter-ions that a name gives are not always drawn. Like-named read-outs stand apart in the source and are kept apart here.

Assays:
[1] = Solvent solubility screen of phosphate salt; type: physicochemical; conditions: for solubility: read-out: Approx. Solubility
Description: Selected solvent was added in 50 μL aliquots to approximately 10 mg of poorly crystalline phosphate pattern (obtained from above lyophilisation). Between each addition, the mixture was checked for dissolution and where no dissolution was apparent, the mixture was heated to about 40° C. and checked again. This procedure was continued until dissolution was observed or until 2 mL of solvent had been added. Samples in which dissolution was observed were stored uncapped at ambient temperature to allow evaporation. Samples in which dissolution was not observed were filtered via centrifugation. All observed solids were analyzed by XRPD. The solvent systems used during the solvent solubility screen are detailed in Table 3.

[2] = Storage of phosphate pattern 2 at 40° C./75% RH; type: physicochemical; conditions: about 16 hours
Description: The samples were analyzed by XRPD.

- solubility ([1]; 1,4-dioxane, 40 °C, organic solvent or mixture, thermodynamic from solid, 1,4-Dioxane): < 5000 µg/mL
- solubility ([1]; 2-Butanol, 40 °C, organic solvent or mixture, thermodynamic from solid, 2-Butanol): < 5000 µg/mL
- solubility ([1]; 2-Ethoxyethanol, 40 °C, organic solvent or mixture, thermodynamic from solid, 2-Ethoxyethanol): < 5000 µg/mL
- solubility ([1]; 2-methyl tetrahydrofuran, 40 °C, organic solvent or mixture, thermodynamic from solid, 2-Methyl tetrahydrofuran): < 5000 µg/mL
- solubility ([1]; 2-propanol, 40 °C, organic solvent or mixture, thermodynamic from solid, 2-Propanol): < 5000 µg/mL
- solubility ([1]; 80% 2-propanol/20% water (% v/v), 40 °C, organic solvent or mixture, thermodynamic from solid, 80% 2-Propanol/20% water (% v/v)): < 5000 µg/mL
- solubility ([1]; 80% acetone/20% water (% v/v), 40 °C, organic solvent or mixture, thermodynamic from solid, 80% Acetone/20% water (% v/v)): < 5000 µg/mL
- solubility ([1]; 80% acetonitrile/20% water (% v/v), 40 °C, organic solvent or mixture, thermodynamic from solid, 80% Acetonitrile/20% water (% v/v)): < 5000 µg/mL
- solubility ([1]; 80% methanol/20% water (% v/v), 40 °C, organic solvent or mixture, thermodynamic from solid, 80% Methanol/20% water (% v/v)): < 5000 µg/mL
- Approx. Solubility ([1]; N-Methyl pyrrolidone): 17000 µg/mL
- solubility ([1]; N-methyl pyrrolidone, organic solvent or mixture, thermodynamic from solid, N-Methyl pyrrolidone): 10000 to 100000 µg/mL
- Approx. Solubility ([1]; Water): 17000 µg/mL
- solubility ([1]; acetone, 40 °C, organic solvent or mixture, thermodynamic from solid, Acetone): < 5000 µg/mL
- solubility ([1]; acetonitrile, 40 °C, organic solvent or mixture, thermodynamic from solid, Acetonitrile): < 5000 µg/mL
- solubility ([1]; anisole, 40 °C, organic solvent or mixture, thermodynamic from solid, Anisole): < 5000 µg/mL
- solubility ([1]; chloroform, 40 °C, organic solvent or mixture, thermodynamic from solid, Chloroform): < 5000 µg/mL
- solubility ([1]; ethanol, 40 °C, organic solvent or mixture, thermodynamic from solid, Ethanol): < 5000 µg/mL
- solubility ([1]; ethanol/water Aw 0.4, 40 °C, organic solvent or mixture, thermodynamic from solid, Ethanol/water Aw 0.4): < 5000 µg/mL
- solubility ([1]; ethanol/water Aw 0.5, 40 °C, organic solvent or mixture, thermodynamic from solid, Ethanol/water Aw 0.5): < 5000 µg/mL
- solubility ([1]; ethanol/water Aw 0.6, 40 °C, organic solvent or mixture, thermodynamic from solid, Ethanol/water Aw 0.6): < 5000 µg/mL
- solubility ([1]; ethanol/water Aw 0.7, 40 °C, organic solvent or mixture, thermodynamic from solid, Ethanol/water Aw 0.7): < 5000 µg/mL
- solubility ([1]; ethanol/water Aw 0.8, 40 °C, organic solvent or mixture, thermodynamic from solid, Ethanol/water Aw 0.8): < 5000 µg/mL
- solubility ([1]; ethyl acetate, 40 °C, organic solvent or mixture, thermodynamic from solid, Ethyl acetate): < 5000 µg/mL
- solubility ([1]; ethyl formate, 40 °C, organic solvent or mixture, thermodynamic from solid, Ethyl formate): < 5000 µg/mL
- solubility ([1]; ethyleneglycol, 40 °C, organic solvent or mixture, thermodynamic from solid, Ethyleneglycol): < 5000 µg/mL
- solubility ([1]; isopropyl acetate, 40 °C, organic solvent or mixture, thermodynamic from solid, Isopropyl acetate): < 5000 µg/mL
- solubility ([1]; methanol, 40 °C, organic solvent or mixture, thermodynamic from solid, Methanol): < 5000 µg/mL
- solubility ([1]; methylethyl ketone, organic solvent or mixture, thermodynamic from solid, Methylethyl ketone): < 5000 µg/mL
- solubility ([1]; methylisobutyl ketone, organic solvent or mixture, thermodynamic from solid, Methylisobutyl ketone): < 5000 µg/mL
- solubility ([1]; nitromethane, organic solvent or mixture, thermodynamic from solid, Nitromethane): < 5000 µg/mL
- solubility ([1]; tert-butylmethyl ether, organic solvent or mixture, thermodynamic from solid, tert-Butylmethyl ether): < 5000 µg/mL
- solubility ([1]; tetrahydrofuran, organic solvent or mixture, thermodynamic from solid, Tetrahydrofuran): < 5000 µg/mL
- solubility ([1]; water, thermodynamic from solid, Water): 10000 to 100000 µg/mL
- form by XRPD upon storage at 40° C./75% RH [2]: completely converted to form 1
Structure (SMILES): Cn1ncc2c1Nc1ccccc1NC2 [phosphate pattern 2, phosphoric acid addition salt of 1-methyl-1,4,5,10-tetrahydropyrazolo[3,4-b][1,5]benzodiazepine]
